According to patent US11078205B2, “Selective inhibitors of protein arginine methlytransferase 5 (PRMT5)” (Prelude Therapeutics, Incorporated, priority 2017, dated 2021):
pIC50: −log10 of the molar value. In brackets after ≈: the same amount, converted by molar mass. Blank lines part the entries; values can stand above or below the compound they belong to.

Legend:
PRMT5/MEP50 complex = PRMT5/MEP50 complex (Homo sapiens (Human), UniProt O14744); assay: Biochemical assay: PRMT5/MEP50 methylation of histone H2A with 3H-SAM, filter plate scintillation; conditions: histone H2A 5 μM, SAM 1 μM, PRMT5/MEP50 5 nM
Procedure: Biochemical Assay Protocol
Compounds were solubilized and 3-fold diluted in 100% DMSO. […] Standard reactions were performed in a total volume of 50 μl in assay buffer, with histone H2A (5 μM final) as substrate. To this was added the PRMT5/MEP50 complex diluted to provide a final assay concentration of 5 nM and the compounds were allowed to preincubate for 15 to 20 minutes at room temperature. The reaction was initiated by adding S-[3H-methyl]-adenosyl-L-methionine (PerkinElmer) to final concentration of 1 μM. Following a 60 minutes incubation at 30° C., the reaction was stopped by adding 100 μL of 20% TCA. Each reaction was spotted onto filter plate (Multi Screen FB Filter Plate, Millipore), and washed 5 times with PBS buffer, Scintillation fluid was added to the filter plate and read in a scintillation counter. IC50 values were determined by fitting the data to the standard 4 parameters with Hill Slope using GraphPad Prism software.

FaSSIF solubility = conditions: 25 °C, thermodynamic from solid
sDMA in tumor samples = assay: sDMA levels in Granta-519 xenograft tumor samples by western blot; format: in vivo, mouse; conditions: 12 hours after last dosing
Procedure: Granta-519 cells was maintained in DMEM medium supplemented with 10% fetal bovine serum and 2 mM L-Glutamine at 37° C. in an atmosphere of 5% CO2 in air. Cells in exponential growth phase were harvested and 1×10^7 cells in 0.1 mL of PBS with Matrigel (1:1) were injected subcutaneously at the right lower flank region of each mouse for tumor development. The treatments were started when the mean tumor size reaches approximately 300-400 mm^3. […] Example 47 or vehicle (0.5% Na CMC+0.5% Tween80, suspension) were administered orally (QD for Example 47, QD for vehicle) at a dose of 30 mg/kg and 50 mg/kg for 19 and 16 days, respectively. Body weights and tumor size were measured every 3 to 4 days after randomization. Animals were euthanized 12 hours after last dosing, and blood and tumor samples were collected for analysis.
To measure sDMA levels in tumor samples, tumors from each mouse were weighted and homogenized in RIPA buffer supplemented with protease inhibitor (cOmplete™, EDTA-free Protease Inhibitor Cocktail, Roche). Lysate were centrifuged at 14,000 rpm for 30 min at 4° C. to remove debris. Total protein concentrations of lysate were determined by BCA assay (ThermoFisher Scientific, Catalog #: 23225). Equal amount of total proteins from each tumor were separated on SDS-PAGE gel, and sDMA levels were determined by WB as described previously.

Chain of PRMT5/MEP50 complex (O14744 whole entry): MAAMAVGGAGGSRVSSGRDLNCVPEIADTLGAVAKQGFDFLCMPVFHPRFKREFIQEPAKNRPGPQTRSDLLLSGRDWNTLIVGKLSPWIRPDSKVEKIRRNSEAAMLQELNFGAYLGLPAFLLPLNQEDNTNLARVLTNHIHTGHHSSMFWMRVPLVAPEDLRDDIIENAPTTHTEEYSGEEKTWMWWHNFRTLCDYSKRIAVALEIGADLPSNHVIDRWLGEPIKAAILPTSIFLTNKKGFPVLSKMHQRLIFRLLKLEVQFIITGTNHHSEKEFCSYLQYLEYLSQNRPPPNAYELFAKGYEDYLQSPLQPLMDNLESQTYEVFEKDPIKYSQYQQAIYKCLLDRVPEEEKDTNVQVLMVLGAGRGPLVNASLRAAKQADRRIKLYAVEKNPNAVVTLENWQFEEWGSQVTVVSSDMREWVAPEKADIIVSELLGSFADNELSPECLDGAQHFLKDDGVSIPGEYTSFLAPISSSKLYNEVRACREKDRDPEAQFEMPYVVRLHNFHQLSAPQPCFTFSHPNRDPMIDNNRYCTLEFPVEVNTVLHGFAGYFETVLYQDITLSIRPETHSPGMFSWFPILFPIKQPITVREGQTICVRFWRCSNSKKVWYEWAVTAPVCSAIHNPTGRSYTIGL
Chain of PRMT5/MEP50 complex (Q9BQA1 whole entry partner): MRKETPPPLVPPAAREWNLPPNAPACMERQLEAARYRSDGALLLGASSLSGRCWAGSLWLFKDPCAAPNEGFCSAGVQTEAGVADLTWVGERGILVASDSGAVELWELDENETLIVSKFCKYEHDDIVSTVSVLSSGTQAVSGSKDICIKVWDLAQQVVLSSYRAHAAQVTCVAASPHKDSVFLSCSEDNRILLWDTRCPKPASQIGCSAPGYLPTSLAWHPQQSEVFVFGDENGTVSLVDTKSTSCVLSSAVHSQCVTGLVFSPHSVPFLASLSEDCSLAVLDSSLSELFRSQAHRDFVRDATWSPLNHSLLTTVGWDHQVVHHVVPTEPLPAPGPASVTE

pIC50 (PRMT5/MEP50 complex): 6.15
Compound: C[C@@]1(O)[C@@H]([C@@H](O)c2ccc(Cl)c(Cl)c2)O[C@@H](n2ccc3c(N)ncnc32)[C@@H]1O [Example 66, (2R,3S,4R,5R)-5-(4-amino-7H-pyrrolo[2,3-d]pyrimidin-7-yl)-2-((S)-(3,4-dichlorophenyl)(hydroxy)methyl)-3-methyltetrahydrofuran-3,4-diol]

solubility at 4 h (FaSSIF solubility): 10 to 25 µg/mL (≈ 32.4 to 81.1 µM)
Compound: CC(=O)CC(c1ccccc1)c1c(O)c2ccccc2oc1=O (centres unmarked) [Warfarin]

Compound: C[C@@]1(O)[C@@H]([C@H](O)c2ccc(Cl)c(Cl)c2)O[C@@H](n2ccc3c(N)ncnc32)[C@@H]1O [Example 47, (2R,3S,4R,5R)-5-(4-amino-7H-pyrrolo[2,3-d]pyrimidin-7-yl)-2-((R)-(3,4-dichlorophenyl)(hydroxy)methyl)-3-methyltetrahydrofuran-3,4-diol]
inhibition of sDMA (sDMA in tumor samples; 30 mg/kg orally QD): > 90%
sDMA level in tumor (sDMA in tumor samples; 50 mg/kg orally QD): no detectable sDMA

solubility at 4 h (FaSSIF solubility; fassif): < 2 µg/mL
Compound: O=C1C(O)=C([C@H]2CC[C@H](c3ccc(Cl)cc3)CC2)C(=O)c2ccccc21 [Atovaquone]
